Several values for one entry are separate records, joined by “and”; a condition that tells them apart may be missing. Equal values may be shown once.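 Results reflect a 48-hour exposure of cells in 96-well plates to compound at five concentrations. GI50 = concentration required for 50% inhibition of growth. Definition used: TGI = concentration required for complete inhibition of growth.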 *1 amine or outer side, *2 acyl side, *3 side chain or, on linkers, in order; H or OH if unused. Where a SMILES comes first, the peptide text is derived from it. The star is where a group is joined. γGlu = O=C(O)[CH](CCC(=O)[*:2])N[*:1]; NHOH = ON*
What was measured:
Experiment in all cases: NCI tumour cell line growth inhibition, 48 h
HCC-2998 colon = test system: HCC-2998 colon
T-47D breast = test system: T-47D breast
NCI/ADR-RES ovarian = test system: NCI/ADR-RES ovarian
HT29 colon = test system: HT29 colon
HOP-92 NSCLC = test system: HOP-92 NSCLC
OVCAR-8 ovarian = test system: OVCAR-8 ovarian
SK-MEL-2 melanoma = test system: SK-MEL-2 melanoma
NCI-H460 lung = test system: NCI-H460 lung
A498 renal = test system: A498 renal
CCRF-CEM leukemia = test system: CCRF-CEM leukemia
BT-549 breast = test system: BT-549 breast
UACC-257 melanoma = test system: UACC-257 melanoma
EKVX NSCLC = test system: EKVX NSCLC
HL-60(TB) leukemia = test system: HL-60(TB) leukemia

Compound	TGI (HCC-2998 colon)	TGI (T-47D breast)	TGI (NCI/ADR-RES ovarian)	TGI (HT29 colon)	TGI (HOP-92 NSCLC)	TGI (OVCAR-8 ovarian)	TGI (SK-MEL-2 melanoma)	TGI (NCI-H460 lung)	TGI (A498 renal)	TGI (CCRF-CEM leukemia)	TGI (BT-549 breast)	TGI (UACC-257 melanoma)	GI50 (HOP-92 NSCLC)	TGI (EKVX NSCLC)	GI50 (NCI-H460 lung)	GI50 (CCRF-CEM leukemia)	GI50 (BT-549 breast)	GI50 (HL-60(TB) leukemia)	TGI (HL-60(TB) leukemia)
c1ccc(C/C(=N\Nc2nc3ccccc3[nH]2)c2ccccn2)cc1	30.9 µM	15.6 µM	0.0936 µM	5.23 µM	0.653 µM	2.08 µM	15.3 µM	11.3 µM	1.37 µM	0.375 µM	16.1 µM	1.54 µM	–	–	–	–	–	–	–
CC(C)(C)OC(=O)C1C(=O)NC(=O)CC1C(OCc1ccccc1)C(OCc1ccccc1)C(COCc1ccccc1)OCc1ccccc1 (stereo unspecified)	> 100 µM	14.6 µM	> 100 µM	> 75 µM	> 100 µM	> 100 µM	–	> 100 µM	> 100 µM	> 100 µM	> 100 µM	> 100 µM	> 100 µM and 13.3 µM	> 100 µM	> 100 µM and 37.3 µM	> 100 µM and 49.1 µM	> 100 µM and 31.7 µM	61.7 µM and 12.8 µM	> 100 µM and 49.5 µM
COc1cc(/C=C2\CC3C4CC=C5C[C@@H](O)CC[C@]5(C)C4CC[C@]3(C)\C2=N\O)cc(OC)c1OC (stereo partly specified)	45 µM	18.8 µM	74.3 µM	> 100 µM	> 100 µM	> 100 µM	17.1 µM	54.9 µM	42.6 µM	> 100 µM	37.2 µM	61.1 µM	–	> 100 µM	–	–	–	–	> 100 µM
Cc1ccc(S(=O)(=O)N(CC(O)COc2ccccc2)c2c(F)c(F)c(F)c(F)c2F)cc1 (stereo unspecified)	34.5 µM	52.4 µM	35.1 µM	33 µM	21.7 µM	32.8 µM	30 µM	30.3 µM	33.2 µM	–	28.7 µM	–	–	35.3 µM	–	–	–	–	42.2 µM
Cc1c2ccccc2c(/C=N/NC(=O)CSCC(=O)N/N=C/c2c3ccccc3c(C)c3ccccc23)c2ccccc12	65.1 µM	> 82.4 µM	> 100 µM	> 100 µM	38.6 µM	> 86.4 µM	> 100 µM	> 100 µM	> 93.3 µM	> 72.4 µM	> 90.1 µM	> 100 µM	–	> 100 µM	–	–	–	–	> 100 µM
CC(Nc1cccc(Cl)c1)c1ccncc1 (stereo unspecified)	–	> 100 µM	> 100 µM	> 100 µM	> 100 µM	> 100 µM	> 100 µM	> 100 µM	> 100 µM	> 100 µM	> 100 µM	> 100 µM	–	> 100 µM	–	–	–	–	–
O=C1O/C(=C(\Br)c2ccc([N+](=O)[O-])cc2)c2ccccc21	> 100 µM	> 100 µM	> 100 µM	> 88.5 µM	> 100 µM	> 100 µM	> 100 µM	> 100 µM	> 100 µM	62.7 µM	> 100 µM	> 100 µM	–	> 100 µM	–	–	–	–	> 67.1 µM
COP(=O)(OC)[C@@](O)(c1ccccc1)[C@@H](O)[C@H](O)c1ccccc1	–	> 100 µM	> 100 µM	> 100 µM	> 100 µM	> 100 µM	> 100 µM	> 100 µM	> 100 µM	41.6 µM	> 100 µM	> 100 µM	–	> 100 µM	–	–	–	–	> 100 µM
CC1=NN(c2ccccc2)C(=O)/C1=C1\SC(c2ccccc2)(c2ccccc2)c2ccccc21	> 100 µM	> 100 µM	> 100 µM	> 100 µM	> 100 µM	> 100 µM	> 100 µM	> 100 µM	> 100 µM	> 100 µM	> 100 µM	> 100 µM	–	> 100 µM	–	–	–	–	> 100 µM
CN(C)CC1CCC/C(=C\c2ccc(Cl)c(Cl)c2)C1=O (stereo unspecified)	25.5 µM	5.71 µM	22.8 µM	> 33.9 µM	13.4 µM	9.89 µM	16.8 µM	28 µM	26.9 µM	2.68 µM	5.01 µM	21.7 µM	–	25.5 µM	–	–	–	–	4.06 µM
CCOC(=O)CCCN	> 100 µM	> 100 µM	> 100 µM	> 100 µM	> 100 µM	> 100 µM	> 100 µM	> 100 µM	> 100 µM	> 100 µM	> 100 µM	> 100 µM	–	> 100 µM	–	–	–	–	> 100 µM
Fc1ccc(/C=C2\COCC3=C2NC(=S)NC3c2ccc(F)cc2)cc1 (stereo unspecified)	32.7 µM	90.1 µM	40 µM	–	34 µM	30 µM	28.6 µM	36 µM	30.6 µM	45.7 µM	53.5 µM	34.2 µM	–	42.6 µM	–	–	–	–	35.4 µM
NC(CCC(=O)NC(CCC(=O)NO)C(=O)NCC(=O)O)C(=O)O (stereo unspecified) (γGlu-Glu(NHOH)-Gly-OH; configuration not given here)	> 100 µM	> 100 µM	> 100 µM	> 100 µM	> 100 µM	> 100 µM	> 100 µM	> 100 µM	> 100 µM	> 100 µM	> 100 µM	> 100 µM	–	> 100 µM	–	–	–	–	> 100 µM
COc1ccc(C2c3cc4c(cc3OC(N3CCOCC3)C2C)OCO4)cc1OC (stereo unspecified)	> 44.8 µM	> 100 µM	25.7 µM	46.8 µM	> 92.3 µM	> 100 µM	61.8 µM	> 63.8 µM	43 µM	62.5 µM	> 100 µM	> 100 µM	–	> 100 µM	–	–	–	–	> 29.1 µM
COC(=O)/C(=C(/C)c1ccco1)P(=O)(OC)OC	> 100 µM	> 100 µM	> 100 µM	> 100 µM	> 100 µM	> 100 µM	> 100 µM	–	> 100 µM	> 100 µM	> 100 µM	> 100 µM	–	> 100 µM	–	–	–	–	–
O=C1CC(Nc2ccccc2)c2c(Cl)sc(Cl)c21 (stereo unspecified)	3.39 µM	> 20 µM	6.44 µM	3.92 µM	3.13 µM	–	4.37 µM	24.6 µM	6.21 µM	0.442 µM	4.36 µM	3.86 µM	–	3.4 µM	–	–	–	–	1.36 µM
O=C1C(NS(=O)(=O)c2ccccc2)=C(n2ccnc2)C(=O)c2ccccc21	–	> 100 µM	> 100 µM	> 100 µM	> 100 µM	> 100 µM	> 100 µM	> 100 µM	–	> 100 µM	> 100 µM	> 100 µM	–	> 100 µM	–	–	–	–	> 100 µM
Cc1ccc(N=NC(=Nc2ccc(F)cc2)c2ccc(N(CCC#N)CCC#N)cc2)cc1	> 100 µM	> 100 µM	> 100 µM	> 100 µM	> 100 µM	> 100 µM	> 100 µM	> 100 µM	> 100 µM	> 100 µM	> 100 µM	91.3 µM	–	> 100 µM	–	–	–	–	–
COc1nc2ncc([C@@H](OC(C)=O)[C@@H](COC(C)=O)OC(C)=O)nc2c(=O)n1C	–	> 100 µM	> 100 µM	> 100 µM	> 100 µM	> 100 µM	> 100 µM	> 100 µM	> 100 µM	> 100 µM	> 100 µM	> 100 µM	–	> 100 µM	–	–	–	–	87.8 µM
COC(=O)[C@H](Cc1ccccc1)NC(=O)N(CCN(CCC#N)C(=O)N[C@H](C(=O)OC)C(C)C)c1ccccc1	> 100 µM	> 100 µM	> 100 µM	–	80.5 µM	> 100 µM	> 100 µM	–	> 100 µM	> 100 µM	> 100 µM	> 100 µM	–	> 100 µM	–	–	–	–	–
C[C@]12CC[C@H]3[C@@H](CC=C4C[C@@H](N5CCCC5)CC[C@@]43C)[C@@H]1C/C(=C\c1ccc([N+](=O)[O-])cc1)[C@@H]2O	–	46.9 µM	43.4 µM	27.4 µM	27.7 µM	–	–	> 100 µM	28.6 µM	14.1 µM	26.7 µM	31.5 µM	–	–	–	–	–	–	–
CCOC(=O)c1nc2ccccc2nc1Nc1cc(OC)c(OC)c(OC)c1	> 100 µM	> 100 µM	> 100 µM	> 100 µM	> 100 µM	–	> 100 µM	> 100 µM	–	> 100 µM	> 100 µM	–	–	> 100 µM	–	–	–	–	> 100 µM
CCOC(=O)c1ccc(-c2onc(C)c2Br)[nH]1	> 100 µM	> 100 µM	> 100 µM	> 100 µM	92 µM	> 100 µM	> 100 µM	> 100 µM	> 100 µM	–	> 100 µM	> 100 µM	–	> 100 µM	–	–	–	–	–
O=C1c2cccnc2S(=O)(=O)N1c1ccc(Br)cc1	–	> 100 µM	> 100 µM	> 100 µM	> 100 µM	> 100 µM	> 100 µM	–	> 100 µM	> 100 µM	> 100 µM	> 100 µM	–	> 100 µM	–	–	–	–	28.1 µM
COc1cc(OC)c(-n2[nH]c(=O)n(C)c2=O)c(OC)c1	> 100 µM	> 100 µM	> 100 µM	> 100 µM	–	> 100 µM	> 100 µM	> 100 µM	> 100 µM	> 100 µM	> 100 µM	> 100 µM	–	> 100 µM	–	–	–	–	> 100 µM
Nc1nc(N)c2cc(-c3cc4ccccc4[nH]3)ccc2n1	–	21.7 µM	> 100 µM	38.9 µM	35.2 µM	> 100 µM	36.4 µM	45.8 µM	32.7 µM	> 100 µM	80.3 µM	35.1 µM	–	95 µM	–	–	–	–	47.7 µM
